The test system of one test is TNFα synthesis. The test can be described thus: TNFα synthesis in human monocytes incubated with LPS. The format is cell-based. The conditions noted are these: LPS 200 ng/mL, 18 hrs. The method, then:
(§1) Human peripheral blood monocytes (from three separate individuals) were isolated from buffy coats by lymphoprep gradient separation of mononuclear cells followed by counter-current centrifugal elutriation (Demasi et al. 2000). The test compounds were dissolved in DMSO and added to fresh monocytes After 30 min, LPS was added to achieve a final concentration of 200 ng/mL. After incubation for 18 hrs at 37° C. in 5% CO2, supernatants were removed and PGE2, TXB2 (the stable hydrolysis product of TXA2) and TNFα production were measured by radioimmunoassay (RIA).

A further test relates to A2780 (Ovarian). The test can be described thus: In vitro cytotoxicity, MTT proliferation assay, A2780. The conditions noted are these: Homo sapiens. In kind it is cell-based, human. The method, then: (§2) The human pancreatic cancer cell line, HPAC (CRL-2119) was routinely cultured in 1:1 mixture DMEM (Sigma) plus Ham's F12 (Sigma) medium containing HEPES (15 mM), insulin (0.002 mg/ml), transferrin (0.005 mg/ml), hydrocortisone, (40 ng/ml), epidermal growth factor (10 ng/ml). The ovarian cancer cell line CP70 was obtained as a gift from Dr. Gil Mor (Yale University) and cultured in a 1:1 mixture DMEM plus Ham's F12 medium, and SKOV-3 was purchased from ATCC and cultured in McCoy's 5a medium. The breast cancer cell line MDA-MB-468 cultured in Leibovitz's L-15 medium.
(§3) All cultures were supplemented with 10% FCS(CSL, Australia), penicillin (100 U/ml), streptomycin ([…]), L-glutamine (2 mM) and sodium bicarbonate (1.2 g/L), and cultured at 37° C. in a humidified atmosphere of 5% CO2. All remaining cell lines were purchased from ATCC (Maryland, USA) except where noted.
(§4) IC50 values were determined for each cell line. Cells were seeded in 96-well plates at an appropriate cell density as determined from growth kinetics analysis. NFFs were cultured for 5 days and RK-13s for 24 hrs in the absence and presence of the test compounds. Cell proliferation was assessed after the addition of 20 μl of 3-4,5 dimethylthiazol-2,5-diphenyl tetrazolium bromide (MTT, 2.5 mg/ml in PBS, Sigma) for 3-4 hrs at 37° C. according to manufacturer's instructions. IC50 values were calculated from semi-log plots of % of control proliferation on the y-axis against log dose on the x-axis.
(In general: Formazan colour is commonly taken as a measure of viable cells.)

In test [1] the test system is human pancreatic cancer cell line, HPAC (CRL-2119). The test can be described thus: In vitro cytotoxicity, MTT proliferation assay, CRL-2119. In kind it is cell-based. The conditions noted are these: Homo sapiens, HPAC; Pancreatic CRL-2119. The method, then: as §2, §3, §4
In the next test the test system is TXB2 synthesis. As to the kind of experiment: TXB2 synthesis in human monocytes incubated with LPS. In kind it is cell-based. The note with it: LPS 200 ng/mL, 18 hrs, dose responsive. The method, then:
as §1

Another test concerns PGE2 synthesis. The test can be described thus: PGE2 synthesis in human monocytes incubated with LPS. The format is cell-based. The conditions noted are these: LPS 200 ng/mL, 18 hrs, dose responsive. The protocol:
as §1

Another test concerns MM200 (Melanoma). The test can be described thus: In vitro cytotoxicity, MTT proliferation assay, MM200. The format is cell-based, human. The note with it: Homo sapiens. The protocol: as §2, §3, §4
Another test concerns RPMI-8226 (Leukemic). As to the kind of experiment: In vitro cytotoxicity, MTT proliferation assay, RPMI-8226. The note with it: Homo sapiens; Leukemic RPMI-8226. The format is cell-based. The protocol:
as §2, §3
IC50 values were determined for each cell line. Cells were seeded in 96-well plates at an appropriate cell density as determined from growth kinetics analysis. […] Cell proliferation was assessed after the addition of 20 μl of 3-4,5 dimethylthiazol-2,5-diphenyl tetrazolium bromide (MTT, 2.5 mg/ml in PBS, Sigma) for 3-4 hrs at 37° C. according to manufacturer's instructions. IC50 values were calculated from semi-log plots of % of control proliferation on the y-axis against log dose on the x-axis.

The subject of another test is MM96L (Melanoma). The test can be described thus: In vitro cytotoxicity, MTT proliferation assay, MM96L. The format is cell-based, human. The conditions noted are these: Homo sapiens. The protocol:
as §2, §3, §4

The next test has as its system HPAC (Pancreatic) cells. The test can be described thus: Chemosensitisation, combination with antineoplastic agent, HPAC. The format is cell-based, human. The method, then:
The utility of the dimeric compounds of the invention to act as a chemosensitiser when used in combination with an array of standard chemotherapeutic agents was assessed. Dimeric Cpd. 2 was applied to various colorectal and pancreatic cancer cell lines to investigate its synergy with standard chemotherapeutic agents including cisplatin, gemcitabine, paclitaxel, doxorubicin, camptothecin and topotecan.
The experiment as outlined in SOP-BD011 (Versions A and B) was used to screen three antineoplastic agents against a given cell line in any ‘one’ experiment (see for example Kanzawa et al., (1997)). The inherent design of the experiment allowed for three sequences of Cpd. 2 and an antineoplastic agent. • 1) Direct Sequence—Cells are treated with both Cpd. 2 and a single antineoplastic agent (combined) for 5 days. • 2) Cpd. 2 First (Forward) Sequence—Cells are treated for 24 hours with Cpd. 2 before replacing with a 24 hour antineoplastic agent treatment; drugs are then washed out and processed on Day 5. • 3) Reverse Sequence—The reverse order to experiment No. 2 above. i.e. a cytotoxin first sequence Results and Conclusions
All data was evaluated using the formulae of theoretic additivity incorporated into a three dimensional model, as described by Kanzawa et al. (1997). […]

The test system of the next test is SKOV-3 (Ovarian). As to the kind of experiment: In vitro cytotoxicity, MTT proliferation assay, SKOV-3. The format is cell-based, human. The conditions noted are these: Homo sapiens, SK-OV-3; Ovarian SKOV-3. The protocol:
as §2, §3, §4

The subject of a further test is LNCaP (Prostate). The test can be described thus: In vitro cytotoxicity, MTT proliferation assay, LNCaP. In kind it is cell-based, human. The conditions noted are these: Homo sapiens. The protocol:
as §2, §3, §4

Test [2] has as its system ear swelling in mice induced by the topical application of arachidonic acid (AA). As to the kind of experiment: Murine ear inflammation induced by arachidonic acid. The format is in vivo, Female BALB/c mice. The protocol: Compound 2 was examined for its ability to inhibit ear swelling in mice induced by the topical application of arachidonic acid (AA). The inflammatory response due AA, the immediate precursor of the eicosanoids, is due to formation of AA metabolites via both the cyclooxygenase (COX) and lipoxygenase (LOX) pathways (Young et al. 1984). AA induces an early (10-15 min) increase in both PGE2 and LTC4 synthesis which precedes the increase in ear thickness (Opas et al. 1985; Chang et al. 1986).
Female BALB/c mice (ARC, WA, Australia), weighing 15-21 g were injected with Compound 2 delivered in polyethylene glycol (PEG) 400:phosphate buffered saline (PBS) 1:1 intraperitoneally (i/p) at a dose of 25 mg/kg 30 min prior to the application of AA being to the ears. Mice were anaesthetised using isoflurane and baseline thickness of both ears was measured using a spring micrometer. Each mouse received a total of […] of AA in ethanol (50 mg/ml) applied to the inner and outer surfaces of each pinna (i.e. 0.5 mg AA or 2 μg PMA per ear). […]
The difference in ear swelling pre- and post-application of AA for each ear was calculated, and the average for the two ears of each mouse calculated. The difference in mean swelling of each test group compared to the group given vehicle alone was calculated using a two-tailed unpaired t test (Prism 4, GraphPad Software).

The term IC50 denotes the concentration needed to halve the response being measured. Lower therefore signals inhibition by little substance.

For `COc1ccc(C23COc4c(ccc(O)c4C)C2C2c4ccc(O)c(C)c4OCC2c2cc(OC)c(OC)cc23)cc1OC` (centres unmarked) [Cpd. 2, 4,9-Dihydroxy-14,15-dimethoxy-12a-(3′,4′-dimethoxyphenyl)-3,10-dimethyl-2,11-dioxa-(1H,12H)-6b,6c,12a,16b-tetrahydronaphtho[1,2-g]chrysene], the “effect on induction of TNFα” value in the test on TNFα synthesis is “inhibited”. Moreover, the IC50 was found to be 10.16 ± 0.07 µM in the test on A2780 (Ovarian); 11.2 ± 4.7 µM in test [1]; 6.5 µM in the test on MM200 (Melanoma); 15.2 µM in the test on RPMI-8226 (Leukemic); 6.8 µM with MM96L (Melanoma); 16.7 ± 10 µM in the test on SKOV-3 (Ovarian). The half-maximal inhibitory concentration (IC50) in the test with LNCaP (Prostate) worked out at 12 ± 4.3 µM. In the test with TXB2 synthesis, the “effect on TXB2 synthesis” value is “inhibited”. Also, in the test on PGE2 synthesis, the “effect on PGE2 synthesis” value is reported as “induced”. Besides, the entries for the “synergy with Gemcitabine” value with HPAC (Pancreatic) cells (Cpd. 2 concentrations greater than 5 μM) and in the test with HPAC (Pancreatic) cells (simultaneously (A) or 24 hour sequences (B,C)) were “Synergy was not observed” and “synergistic cytotoxicity”, respectively. Also, the “Change in ear thickness (mean ± SD, ×0.01 mm)” value in [2] (25 mg/kg i/p 30 min prior to AA, 1 hr post-AA, vehicle 14.5 ± 4.7) turned out to be 5.1 ± 1.7 ×0.01 mm. For the same compound, in test [2] (25 mg/kg i/p, AA-induced), the “ear thickness compared with vehicle alone” value is on record as “significant reduction”.

The record behind these values is US7700644B2, “Isoflavonoid dimers” (Novogen Research Pty Ltd, priority 2005, dated 2010).
